In patent US20260042754A1, “Substituted Bicyclic Heteroaryl Sulfonamide Derivatives for the Treatment of Cancer” (NODUS ONCOLOGY LIMITED, priority 2022, published 2026):
Read-outs that look alike come from different tables or passages of the source.

How the values were obtained:
[1] = molecular target: human PARG (PARG-NanoLuc fusion in HEK293T cells) (Homo sapiens (Human), UniProt Q86W56); assay: PARG NanoBRET-based cellular target engagement assay; format: cell-based; settings: HEK293T cells transfected with PARG-NanoLuc, NanoBRET probe 0.89 μM, 2 hours; read-out: PARG TE IC50
Chain of human PARG (PARG-NanoLuc fusion in HEK293T cells) (Q86W56 whole entry, the tested form may be a part): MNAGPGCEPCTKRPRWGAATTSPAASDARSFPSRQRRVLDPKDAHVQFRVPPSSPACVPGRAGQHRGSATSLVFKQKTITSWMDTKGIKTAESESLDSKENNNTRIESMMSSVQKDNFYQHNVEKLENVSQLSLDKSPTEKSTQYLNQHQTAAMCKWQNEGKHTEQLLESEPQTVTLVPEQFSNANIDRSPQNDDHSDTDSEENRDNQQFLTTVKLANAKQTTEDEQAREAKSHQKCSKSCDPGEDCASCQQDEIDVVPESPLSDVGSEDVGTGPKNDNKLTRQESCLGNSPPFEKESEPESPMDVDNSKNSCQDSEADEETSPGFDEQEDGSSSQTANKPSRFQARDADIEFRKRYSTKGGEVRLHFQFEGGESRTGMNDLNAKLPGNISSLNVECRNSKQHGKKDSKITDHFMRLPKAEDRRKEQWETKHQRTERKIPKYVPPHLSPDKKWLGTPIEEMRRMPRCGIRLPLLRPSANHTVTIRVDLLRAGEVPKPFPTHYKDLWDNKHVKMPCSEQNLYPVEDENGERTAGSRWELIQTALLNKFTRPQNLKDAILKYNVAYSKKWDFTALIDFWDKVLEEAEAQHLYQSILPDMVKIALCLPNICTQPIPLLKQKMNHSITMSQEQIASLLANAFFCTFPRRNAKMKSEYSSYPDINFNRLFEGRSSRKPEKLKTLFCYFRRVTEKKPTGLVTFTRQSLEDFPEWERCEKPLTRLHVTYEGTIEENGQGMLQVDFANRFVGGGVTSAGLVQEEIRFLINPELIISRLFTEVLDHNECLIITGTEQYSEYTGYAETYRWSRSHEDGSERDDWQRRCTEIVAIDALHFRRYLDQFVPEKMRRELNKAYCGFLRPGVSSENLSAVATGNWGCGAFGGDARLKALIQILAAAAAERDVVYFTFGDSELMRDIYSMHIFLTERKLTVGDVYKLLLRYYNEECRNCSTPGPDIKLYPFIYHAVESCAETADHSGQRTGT
How it was run: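 HEK293T cells transiently expressing full-length human PARG with C-terminal NanoLuc, plated 24 h, then given compound (8-point series, 0.5% DMSO) for 15 min at room temperature. NanoBRET tracer added at 0.89 μM final, 2 h at 37° C.; BRET ratio (460/645 nm) fitted by 4-parameter logistic to give IC50.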

[2] = tested on: TOV-112D endometrioid adenocarcinoma ovarian cancer cell line; assay: Cell proliferation assay (CellTiter-Glo), TOV-112D; format: cell-based; settings: 96-well, 5000 cells per well, 120 hours, highest concentration tested 9000 nM, off-target readout, read-out: TOV-112D GI50 (low PARG dependency)
Experimental: For Examples 1-11, RMUG-S mucinous cystadenocarcinoma (JCRB, #IF050320) and TOV-112D endometrioid adenocarcinoma (ATCC, #CRL-11731) ovarian cancer cell lines were grown in DMEM/F-12 with glutamine (BioConcept, #1-26F09-I) and RPMI with glutamine (BioConcept, #1-41F03-1), respectively, and both media containing 10% FBS (Sigma-Aldrich, #F9665) and supplemented with 1% Penicillin-Streptomycin (BioConcept, #4-01F00-H) using standard cell culture techniques. RMUG-S and TOV-112D ovarian cancer cell lines were selected as highly PARG dependent and having low PARG dependency, respectively, based on their publically available PARG shRNA (short hairpin ribonucleic acid) dropout profiles in the Cancer Dependency Map (DepMap) data portal (Broad Institute DepMap Project; Cheung H W et al, Proceedings of the National Academy of Sciences 2011; Cowley G S et al, Scientific Data 2014; McDonald E R et al, Cell 2017). PARG dependency of these cell lines was independently verified and confirmed by genetic and pharmacological means using shRNA-mediated PARG depletion, and the previously reported cell-permeable quinazolinedione PARG inhibitor tool compound PDD00017273 (Pillay N et al, Cancer Cell 2019). Thus, growth inhibition of the RMUG-S cell line serves as a functional on-target inhibition readout, while observing potent growth inhibition of TOV-112D is indicative of compound off-target activity. Cells were seeded in 96-well plates with clear bottom (Huberlab, #7.655 090) at a seeding density of 5000 cells per well in 100 μL of medium, and the plates were incubated overnight at 37° C. with 5% CO2 prior to treatment with compounds. Experimental compounds were prepared in DMSO at a concentration of 10 mM. Compounds were distributed at the desired final concentrations using the Tecan D300e Digital Dispenser (TECAN) and normalized to the highest DMSO volume. The plates were incubated for 120 hours and cell numbers were then measured using CellTiter-Glo® (Promega, #G9241), essentially as recommended by the manufacturer. Briefly, for the CellTiter-Glo® proliferation readout, 50 μL of the reconstituted CellTiter-Glo® 2.0 Reagent were added to 100 μL of medium containing cells. The plates were incubated at room temperature for 10 minutes to stabilize the luminescent signal, and luminescence intensity signals were then measured with a Synergy 4™ microplate reader (BioTek Instruments). Relative proliferation values were calculated by normalizing the raw data using DMSO-treated cells (100% proliferation) and the signals obtained from cells that were evaluated at the time of compound addition (0% proliferation). The concentration-response data were fitted to a sigmoidal 4-parameter logistic model with the maximum constrained to 100%. GI50 values were calculated from the curves as the compound concentrations reducing proliferation to 50%.

| IC50 [1] | GI50 ([2]; Homo sapiens, TOV112D) | GI50 [2] | SMILES |
| --- | --- | --- | --- |
| 30 to 99 nM | ≥ 9 µM |  | CO/N=c1\[nH]c2ccc(S(=O)(=O)NC3(C)CC3)cc2c(=O)n1Cc1cnc(C)s1 [Example 1, 2-methoxyimino-N-(1-methylcyclopropyl)-3-[(2-methylthiazol-5-yl)methyl]-4-oxo-1H-quinazoline-6-sulfonamide] |
| < 30 nM | ≥ 9 µM |  | CO/N=c1\[nH]c2c(-c3ccc(C(=O)N(C)C)cc3)cc(S(=O)(=O)NC3(C)CC3)cc2c(=O)n1Cc1cnn(C)c1 [Example 5, 4-[2-methoxyimino-6-[(1-methylcyclopropyl)sulfamoyl]-3-[(1-methylpyrazol-4-yl)methyl]-4-oxo-1H-quinazolin-8-yl]-N,N-dimethyl-benzamide] |
| 100 to 1000 nM | ≥ 9 µM |  | Cc1nc(C)c(CO/N=c2\[nH]c3ccc(S(=O)(=O)NC4(C)CC4)cc3c(=O)n2Cc2cnn(C)c2)s1 [Example 3, 2-[(2,4-dimethylthiazol-5-yl)methoxyimino]-N-(1-methylcyclopropyl)-3-[(1-methylpyrazol-4-yl)methyl]-4-oxo-1H-quinazoline-6-sulfonamide] |
| < 30 nM | ≥ 9 µM |  | CO/N=c1\[nH]c2c(N3CCN[C@H](C)C3)cc(S(=O)(=O)NC3(C)CC3)cc2c(=O)n1Cc1cnn(C)c1 [Example 7, 2-methoxyimino-N-(1-methylcyclopropyl)-3-[(1-methylpyrazol-4-yl)methyl]-4-oxo-8-[(3R)-3-methylpiperazin-1-yl]-1H-quinazoline-6-sulfonamide] |
| < 30 nM |  | 0.5 to 2 µM | CON=c1[nH]c2c(N3CCN(C(=O)C4(C)CC4)[C@H](C)C3)cc(S(=O)(=O)NC3(C)CC3)cc2c(=O)n1Cc1cnn(C)c1 [Example 8, 2-methoxyimino-N-(1-methylcyclopropyl)-3-[(1-methylpyrazol-4-yl)methyl]-4-oxo-8-[(3R)-3-methyl-4-(1-methylcyclopropanecarbonyl)piperazin-1-yl]-1H-quinazoline-6-sulfonamide] |
| 100 to 1000 nM | ≥ 9 µM |  | CO/N=c1\[nH]c2ccc(S(=O)(=O)NC3(C)COC3)cc2c(=O)n1Cc1cnn(C)c1 [Example 2, 2-methoxyimino-N-(3-methyloxetan-3-yl)-3-[(1-methylpyrazol-4-yl)methyl]-4-oxo-1H-quinazoline-6-sulfonamide] |
